Where a name gives a salt, the structure may show the parent alone.
experiment: Remaining amount of each vitamin after 6 months storage at room temperature, measured by HPLC; assay type: physicochemical; details: vitamin in Example 3 infusion preparation before mixing, stored at room temperature for 6 months
Method: The infusion preparation (before mixing the first-chamber. infusion and the second-chamber infusion) was stored at room temperature for 6 months. Thereafter, the amount of each vitamin component contained in the first-chamber infusion or the second-chamber infusion was measured using HPLC. […] As is clear from the results, each of the vitamin components can be stably present in the infusion preparation even after 6 months storage.

Compound	Remaining rate after 6 months storage (%)
O=C(O)CCCC[C@@H]1SC[C@@H]2NC(=O)N[C@@H]21 [Biotin]	97.8
C=C1CC[C@H](O)C/C1=C/C=C1\CCC[C@]2(C)[C@@H]([C@H](C)CCCC(C)C)CC[C@@H]12 [Cholecalciferol]	100.5
Nc1nc2ncc(CNc3ccc(C(=O)N[C@@H](CCC(=O)O)C(=O)O)cc3)nc2c(=O)[nH]1 [Folic acid]	100.0
NC(=O)c1cccnc1 [Nicotinamide]	99.6
CC(C)(CO)[C@@H](O)C(=O)NCCCO [Panthenol]	100.4
Cc1ncc(CO)c(CO)c1O.Cl [Pyridoxine hydrochloride]	99.3

The remaining lines, values ahead:

Remaining rate after 6 months storage (%)	Compound
99.9	O=C1O[C@H]([C@@H](O)CO)C(O)=C1O [Ascorbic acid]
101.5	CC1=C(C/C=C(\C)CCC[C@H](C)CCC[C@H](C)CCCC(C)C)C(=O)c2ccccc2C1=O [Phytonadione]
100.1	Cc1cc2nc3c(=O)[nH]c(=O)nc-3n(C[C@H](O)[C@H](O)[C@H](O)COP(=O)(O)O)c2cc1C [Riboflavin sodium phosphate]
98.7	Cc1ncc(C[n+]2csc(CCO)c2C)c(N)n1 [Thiamine chloride hydrochloride]
99.0	CC(=O)Oc1c(C)c(C)c2c(c1C)CCC(C)(CCC[C@H](C)CCC[C@H](C)CCCC(C)C)O2 (stereo partly drawn) [Tocopherol acetate]
103.2	Cyanocobalamin

From patent US20170304530A1, “INFUSION PREPARATION” (priority 2010, published 2017)
